The text below walks through data of US20060014193A1, “Nucleoside phosphoramidates and nucleoside phosphoramidases” (priority 2004, published 2006).

One data set concerns the target T1, E. coli hinT (Escherichia coli, UniProt P0ACE7).
T1 sequence (P0ACE7 1-119): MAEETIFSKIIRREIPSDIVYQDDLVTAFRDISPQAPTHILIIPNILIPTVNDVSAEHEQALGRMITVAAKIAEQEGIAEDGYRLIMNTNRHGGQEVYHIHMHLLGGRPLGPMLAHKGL
The data set is described as follows: 31P NMR phosphoramidase assay of purified protein. The data set is classed as biochemical. Conditions: 10 mM substrate, pH 7.2, 22° C. The method, then:
(§1) Phosphoramidase activity in cell lysates was measured by the ^1H-decoupling mode of phosphorus-31 NMR spectroscopy (Varian VAC-300 spectrometer), which can clearly distinguish the substrate, AMP-NH2, and the product, adenosine 5′-monophosphate (AMP). NMR spectrometry is suitable for quantitation by integration of the area under the peak, which is proportional to the amount of nuclei present. The relative ratio of peak areas can be used to calculate the amount of turnover corrected based on a standard curve.
(§2) Cell lysates from E. coli Tuner(DE3)pLacI cells (Novagen) were obtained by treatment with lysozyme (1 mg/ml) and the DNA was precipitated by protamine sulfate followed by centrifugation to remove cell debris. The supernatant was dialyzed extensively against Buffer A (20 mM Tris (pH 7.0); 1 mM EDTA; 1 mM DTT, 0.01 mM PMSF) to remove cellular phosphates and nucleotides. Phosphate free cell lysates (0.75 mg total protein) were incubated with 5 mM AMP-NH2 in 0.5 ml reaction buffer (0.5 mM MgCl2, 20 mM HEPES (pH 7.2)) at 37° C. for intervals of 15 min, 30 min, and 12 h. The reactions were terminated by snap freezing in a dry ice/acetone slush bath and lyophilized for 5 h. The samples were then dissolved in NMR buffer (600 μL, 50 mM EDTA, 20 mM HEPES (pH 7.2), and 1 mM TMP (trimethylphosphate, internal standard)) and the insoluble portion was spun down by centrifugation at 12,500×g for 5 min. A ^31P NMR spectrum was then collected for the supernatant. For the low pH control experiment, 10 mM AMP-NH2 in reaction buffer (500 μL, pH 2.0) was incubated at 37° C. for 12 h and the 31p signal was detected under the same conditions.
(§3) Five recombinant purified proteins were tested with three commercial available compounds (Sigma): AMP-NH2, adenosine 5′-monophosphomorpholidate (AMP-Mor), and guanosine 5′-monophosphomorpholidate (GMP-Mor) (FIG. 1). The compounds (10 mM) were incubated with proteins (2.5-10 μg) in the reaction buffer (500 μL, 0.5 mM MgCl2, 20 mM HEPES (pH 7.2)) at 22° C. for intervals of 36 and 66 min. The reactions were quenched by adding 5 M NaOH (20 μL), followed by snap freezing in a dry ice/acetone slush bath, and lyophilized. The sample preparation for ^31P NMR measurement was as described above for the cell-lysate experiment except that the pH was adjusted by the addition of 12 μL 6 M HCl before NMR spectra were collected.

The target of a further data set is T2, Human Hint1-DHFR (UniProt P0ABQ4+P49773).
T2 construct: made in house; host or cells: E. coli (following the procedure for the hinT plasmid)
The data set is described as follows: 31P NMR phosphoramidase assay of purified protein. It is filed as biochemical. The note with it: 10 mM substrate, pH 7.2, 22° C. The method, then: as §1, §2, §3

In the next data set the target is T3, Rabbit HINT1 (Oryctolagus cuniculus, UniProt P80912).
T3 construct: made in house; host or cells: E. coli hinT deletion mutant
The data set is described as follows: 31P NMR phosphoramidase assay of purified protein. It is filed as biochemical. The note with it: 10 mM substrate, pH 7.2, 22° C. How it is done:
as §1, §2, §3

Data set [1] has as its target T4, BL21 Star (WT) cell lysates (Escherichia coli, UniProt P0ACE7).
T4 construct: endogenous in cells; host or cells: E. coli BL21 Star
The data set is described as follows: 31P NMR phosphoramidase activity in cell lysates. It is filed as biochemical, E. coli. Conditions: for Specific activity: 0.5 mg protein. How it is done: as §1
as §2, with “Phosphate free cell lysates (0.75 mg total protein) were incubated with 5 mM AMP-NH2 in 0.5 ml reaction buffer (0.5 mM MgCl2, 20 mM HEPES (pH 7.2)) at 37° C. for intervals of 15 min, 30 min, and 12 h.” left out
To determine if E. coli hinT is solely responsible of the observed lysates' phosphoramidase activity, a mutant strain, BB1, in which the hinT gene was replace with the chloramphenicol resistance marker, was constructed. The phosphoramidase activities of the wild-type E. coli BL21 Star strain and the mutant strain lysates were determined (Table 3). […] (Table 2). Therefore, the adenosine phosphoramidase activity observed for E. coli cell lysates appears to be totally dependent on hinT.

Data set [2] in a line: Low pH control: chemical stability in pH 2.0 buffer by 31P NMR. The note with it: 10 mM, 37° C. The data set is classed as physicochemical. How it is done:
as §2
Tuner(DE3)pLacI, a modified E. coli BL21 strain, was used to determine phosphoramidase activity in cell lysates. […]

The next data set addresses T5, Yeast HNT (Saccharomyces cerevisiae, UniProt Q04344).
T5 sequence (Q04344 1-158): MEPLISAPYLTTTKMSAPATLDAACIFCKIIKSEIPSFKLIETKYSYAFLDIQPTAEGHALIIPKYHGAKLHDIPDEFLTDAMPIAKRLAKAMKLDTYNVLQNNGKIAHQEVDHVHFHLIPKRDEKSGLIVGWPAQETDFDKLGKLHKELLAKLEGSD
The note with it: Bieganowski et al, 2002; cited from earlier work.

The next data set addresses hHINT1 (Homo sapiens, UniProt P49773). Conditions: literature (J. Biol. Chem. 2004, 279, 18711; 2002, 277, 10852); cited from earlier work.

The Km is the concentration of substrate that gives half-maximal velocity.

Marks after values point to notes of the source that are not given here.

For `Nc1ncnc2c1ncn2[C@@H]1O[C@H](COP(N)(=O)O)[C@@H](O)[C@H]1O` [AMP-NH2, Adenosine 5′-monophosphoramidate], the Specific activity at E. coli hinT came to 526 ± 27 nmol nmol^−1 min^−1; at Human Hint1-DHFR, 388 ± 45 nmol nmol^−1 min^−1; at Rabbit HINT1 it was 70.0 ± 1.3 nmol nmol^−1 min^−1; in data set [1] (30 min), 15.5 nmol/mg/min; in data set [1] (70 min), 26.4 nmol/mg/min. In addition, the “Specific activity of BL21 Star WT cell lysates” value in data set [1] is 20.1 (±7.7) nmol mg^−1 min^−1. The same compound showed an Average specific activity in data set [1] (average) of 20.95 ± 7.71 nmol/mg/min. The “Stability at pH 2.0 (no detectable AMP or Pi)” value in data set [2] is on record as “at least 12 h”. Moreover, the Velocity on Yeast HNT is given as 7.57^b nmol/μg/min. Also, the Kcat on hHINT1 is 0.2 s⁻¹. The Michaelis-Menten constant (Km) on hHINT1 is 0.068 µM.
